Test results: PubChem BioAssay AID248 (DTP/NCI, 2004)
Values joined by “and” are separate entries in the source; they are usually repeats but may differ in a detail not shown here. Equal values may be shown once. Toxic doses and inconclusive results are not listed. No stated cut-off is given here; in the data, active means T/C of 150% or more; inactive means T/C below 125%.

Test system: L1210 leukemia ip in BDF1 mice, survival T/C
Assay: NCI In Vivo Anticancer Drug Screen. Data for tumor model L1210 Leukemia (intraperitoneal) in B6D2F1 (BDF1) mice
Details: endpoint: mean survival time, higher = longer survival
Summary of the method: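 Each compound was tested against a transplantable tumor grown in mice. The endpoint was survival, with treated animals benchmarked against vehicle controls as a simple ratio.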

[1] = dose: 100.0 mg/kg/injection, schedule: Q01DX001 (ip), vehicle: saline
[2] = dose: 200.0 mg/kg/injection, schedule: Q01DX001 (ip), vehicle: saline
[3] = dose: 100.0 mg/kg/injection, schedule: Q01DX009 (ip), vehicle: saline
[4] = dose: 200.0 mg/kg/injection, schedule: Q01DX009 (ip), vehicle: saline
[5] = dose: 100.0 mg/kg/injection, schedule: Q04DX003 (ip), vehicle: saline with Tween-80
[6] = dose: 200.0 mg/kg/injection, schedule: Q04DX003 (ip), vehicle: saline with Tween-80
[7] = dose: 400.0 mg/kg/injection, schedule: Q04DX003 (ip), vehicle: saline with Tween-80
[8] = dose: 100.0 mg/kg/injection, schedule: Q01DX009 (ip), vehicle: Klucel (hydroxypropylcellulose) (HPC)
[9] = dose: 200.0 mg/kg/injection, schedule: Q01DX009 (ip), vehicle: Klucel (hydroxypropylcellulose) (HPC)

Measured: T/C

CCOC(=O)CC1NCCc2c1[nH]c1ccccc21 (stereo unspecified)
inactive: dose: 6.25 mg/kg/injection, schedule: Q01DX001 (ip), vehicle: saline sonified 93 % of control | dose: 12.5 mg/kg/injection, schedule: Q01DX001 (ip), vehicle: saline sonified 98 % of control | dose: 25.0 mg/kg/injection, schedule: Q01DX001 (ip), vehicle: saline sonified 97 % of control

O=C(c1ccccc1)c1cc(-c2cc(=O)cc(-c3cc(C(=O)c4ccccc4)c(O)cc3O)o2)c(O)cc1O
inactive: [1] 96 % of control | [2] 105 % of control | dose: 400.0 mg/kg/injection, schedule: Q01DX001 (ip), vehicle: saline 94 % of control

COc1ccc(C(O)c2cc(-c3ccncc3)c(C(O)c3ccc(OC)cc3)nn2)cc1 (stereo unspecified)
inactive: dose: 100.0 mg/kg/injection, schedule: Q04DX003 (ip), vehicle: gum acacia 94 % of control | dose: 200.0 mg/kg/injection, schedule: Q04DX003 (ip), vehicle: gum acacia 96 % of control | dose: 400.0 mg/kg/injection, schedule: Q04DX003 (ip), vehicle: gum acacia 88 % of control

CC(=O)NC1Cc2cc(C)cc(C)c21 (stereo unspecified)
inactive: dose: 50.0 mg/kg/injection, schedule: Q04DX002 (ip), vehicle: Klucel (hydroxypropylcellulose) (HPC) 105 % of control | dose: 100.0 mg/kg/injection, schedule: Q04DX002 (ip), vehicle: Klucel (hydroxypropylcellulose) (HPC) 102 % of control | dose: 200.0 mg/kg/injection, schedule: Q04DX002 (ip), vehicle: Klucel (hydroxypropylcellulose) (HPC) 98 % of control

CC(/C=N/N(C)C(=N)N)=N\N(C)C(=N)N
inactive: dose: 15.0 mg/kg/injection, schedule: Q01DX Z (ip), vehicle: saline 88 % of control | dose: 30.0 mg/kg/injection, schedule: Q01DX Z (ip), vehicle: saline 103 % of control | dose: 60.0 mg/kg/injection, schedule: Q01DX Z (ip), vehicle: saline 98 % of control | dose: 120.0 mg/kg/injection, schedule: Q01DX Z (ip), vehicle: saline 102 % of control | dose: 120.0 mg/kg/injection, schedule: Q01DX Z (oral), vehicle: saline 103 % of control | dose: 240.0 mg/kg/injection, schedule: Q01DX Z (oral), vehicle: saline 97 % of control | dose: 480.0 mg/kg/injection, schedule: Q01DX Z (oral), vehicle: saline 106 % of control | dose: 960.0 mg/kg/injection, schedule: Q01DX Z (oral), vehicle: saline 113 % of control

O=C(Nc1ccc(C2=NCCCCN2)cc1)c1ccc(C(=O)Nc2ccc(C3=NCCCCN3)cc2)c(Cl)c1
inactive: dose: 0.12 mg/kg/injection, schedule: Q01DX015 (ip), vehicle: water 101 % of control | dose: 0.25 mg/kg/injection, schedule: Q01DX015 (ip), vehicle: water 101 % of control | dose: 0.5 mg/kg/injection, schedule: Q01DX015 (ip), vehicle: water 100 % of control and 101 % of control | dose: 0.75 mg/kg/injection, schedule: Q01DX015 (ip), vehicle: water 103 % of control

CN(C)c1nn2c(-c3ccccc3)nnc2o1
inactive: [3] 94 % of control | [4] 102 % of control | dose: 400.0 mg/kg/injection, schedule: Q01DX009 (ip), vehicle: saline 100 % of control

Cc1ccc(S(=O)C(c2ccccc2)C(c2ccccc2)C(C)O)cc1 (stereo unspecified)
inactive: dose: 100.0 mg/kg/injection, schedule: Q01DX009 (ip), vehicle: saline with Tween-80 89 % of control | dose: 200.0 mg/kg/injection, schedule: Q01DX009 (ip), vehicle: saline with Tween-80 89 % of control | dose: 400.0 mg/kg/injection, schedule: Q01DX009 (ip), vehicle: saline with Tween-80 91 % of control

C=CCc1cnc(N)[nH]c1=O
inactive: [5] 103 % of control | [6] 97 % of control | [7] 100 % of control

CCCCCCC(C)O[Si](C)OCC (stereo unspecified)
inactive: [5] 95 % of control | [6] 101 % of control | [7] 96 % of control

O=C1c2cc([N+](=O)[O-])ccc2-c2cc(Cl)c(NC(=O)C(Cl)Cl)cc21
inactive: dose: 50.0 mg/kg/injection, schedule: Q01DX001 (ip), vehicle: carboxymethylcellulose (CMC) 101 % of control | dose: 100.0 mg/kg/injection, schedule: Q01DX001 (ip), vehicle: carboxymethylcellulose (CMC) 104 % of control | dose: 200.0 mg/kg/injection, schedule: Q01DX001 (ip), vehicle: carboxymethylcellulose (CMC) 101 % of control | dose: 400.0 mg/kg/injection, schedule: Q01DX001 (ip), vehicle: carboxymethylcellulose (CMC) 104 % of control

Cc1cc(C(=O)CC(C)C(=O)O)cc2c1sc1ccccc12 (stereo unspecified)
inactive: [1] 86 % of control | [2] 100 % of control

Cc1ncc(CCl)c2c1OC(C)(C)OC2
inactive: dose: 75.0 mg/kg/injection, schedule: Q01DX001 (ip), vehicle: saline 100 % of control | [1] 100 % of control | dose: 150.0 mg/kg/injection, schedule: Q01DX001 (ip), vehicle: saline 101 % of control | [2] 94 % of control

CCCCCCCC/C=C\CCCCCCCC(=O)OCCCCCCCCCCC
inactive: dose: 100.0 mg/kg/injection, schedule: Q01DX009 (ip), vehicle: other 93 % of control | dose: 200.0 mg/kg/injection, schedule: Q01DX009 (ip), vehicle: other 94 % of control | dose: 400.0 mg/kg/injection, schedule: Q01DX009 (ip), vehicle: other 100 % of control

O=C(O)CCc1nc2ccccc2c(=O)[nH]1
inactive: dose: 50.0 mg/kg/injection, schedule: Q01DX009 (ip), vehicle: Klucel (hydroxypropylcellulose) (HPC) 100 % of control | [8] 100 % of control | [9] 100 % of control

COc1cc(/C=N/N=C(\C)c2ccc3ccccc3c2)cc(OC)c1OC
inactive: [8] 90 % of control | [9] 94 % of control | dose: 400.0 mg/kg/injection, schedule: Q01DX009 (ip), vehicle: Klucel (hydroxypropylcellulose) (HPC) 100 % of control

CC(C)=CC#N
inactive: [5] 90 % of control | [6] 103 % of control | [7] 101 % of control

C[C@]12CCC(=O)C=C1CC[C@@H]1[C@@H]2[C@@H](O)C[C@@]2(C)[C@H]1CC[C@]2(O)C(=O)COC(=O)CCC1CCCC1
inactive: dose: 50.0 mg/kg/injection, schedule: Q04DX003 (sc), vehicle: steriod suspending solution 100 % of control | dose: 100.0 mg/kg/injection, schedule: Q04DX003 (sc), vehicle: steriod suspending solution 96 % of control | dose: 200.0 mg/kg/injection, schedule: Q04DX003 (sc), vehicle: steriod suspending solution 97 % of control | dose: 400.0 mg/kg/injection, schedule: Q04DX003 (sc), vehicle: steriod suspending solution 96 % of control

CC(=O)Nc1c(Cl)cc2c(c1Cl)Cc1c-2cc(Cl)c(NC(C)=O)c1Cl
inactive: [5] 93 % of control | [6] 93 % of control | [7] 101 % of control

CCC(CO)Nc1nc2cc(Br)ccc2c2ccc(Br)cc12 (stereo unspecified)
inactive: dose: 100.0 mg/kg/injection, schedule: Q04DX003 (ip), vehicle: Klucel (hydroxypropylcellulose) (HPC) 90 % of control | dose: 200.0 mg/kg/injection, schedule: Q04DX003 (ip), vehicle: Klucel (hydroxypropylcellulose) (HPC) 87 % of control | dose: 400.0 mg/kg/injection, schedule: Q04DX003 (ip), vehicle: Klucel (hydroxypropylcellulose) (HPC) 94 % of control

Cn1cnc([N+](=O)[O-])c1[Se]c1ncnc2nc[nH]c12
inactive: dose: 12.5 mg/kg/injection, schedule: Q01DX005 (ip), vehicle: other 89 % of control | dose: 50.0 mg/kg/injection, schedule: Q01DX005 (ip), vehicle: other 87 % of control

CCOC(=O)Cc1cc(Cl)c2ccc(Cl)cc2n1
inactive: dose: 50.0 mg/kg/injection, schedule: Q01DX009 (ip), vehicle: saline 96 % of control | [3] 95 % of control | dose: 100.0 mg/kg/injection, schedule: Q04DX003 (ip), vehicle: saline 101 % of control | [4] 90 % of control | dose: 200.0 mg/kg/injection, schedule: Q04DX003 (ip), vehicle: saline 95 % of control | dose: 400.0 mg/kg/injection, schedule: Q04DX003 (ip), vehicle: saline 92 % of control
